The source of these data is patent US4826966A, “Radioiodinated branched carbohydrates” (The United States of America as represented by the United …, priority 1988, dated 1989).

The data set in a line: Distribution of radioactivity in tissues of female rats after intravenous administration. The data set is classed as in vivo. The settings on record: for Distribution of radioactivity in brain / Distribution of radioactivity in thyroid: no unit in table; for Distribution of radioactivity in brain: b28 gives percent dose/g; for Distribution of radioactivity in thyroid: percent. The protocol:
The distribution of radioactivity in tissues of female rats at 5 minutes, 15 minutes, 30 minutes and 60 minutes after intravenous administration of the iodinated compound is shown in the following table. The level of accumulation of radioactivity in the brain after injection of this agent was a significant 1.65 percent dose/g at 5 minutes but the blood levels were also high resulting in blood ratios of 1.6/1 at 5 minutes.

Setting [1] is: 1 h (head printed 1 HT/R), intravenous.

In the case of `CO[C@@H]1O[C@H](COC(C)=O)[C@@H](OC(C)=O)[C@@H](OC(C)=O)[C@@H]1/C=C/[125I]` [methyl-2-deoxy-2-(E)-[^125 I]-iodovinyl-2,4,6-O-triacetyl-β-D-altropyranoside], the “Distribution of radioactivity in brain” value is, setting by setting: (5 min, intravenous) 1.6525; under setting [1], 0.7237. Further, the “Distribution of radioactivity in thyroid” value was found to be 20.6441 (5 min, intravenous); 18.9149 (15 min, intravenous); 25.7085 (30 min, intravenous); 33.4920 under setting [1]. Besides, the blood levels result (5 minutes, intravenous, in words) is “high”. Besides, the “brain retention compared with the peak uptake at 5 minutes” value (60 minutes vs 5 minutes, intravenous) is on record as 50%. Where the note is “60 minutes, intravenous”, the “accumulation of activity in the thyroid” value turned out to be 33.5%. For the setting “from thyroid accumulation at 60 minutes, in words”, the “stability to in vivo deiodination” value was “demonstrated the stability of this agent to in vivo deiodination”. For the same compound, the “retention in the brain (in words)” value (up to 60 minutes, intravenous) is recorded as “prolonged retention in the brain”.
